From publication PMC11364768 (Nature Communications, 2024)
Converted amounts (≈) assume the structure as drawn. No end group written: not given here.

Columns and labels:
S. aureus = experiment: Bacterial resistance development, serial passage; format: cell-based, Staphylococcus aureus; details: passaged every 24 h, n = 4
S. aureus (ATCC 25904) = experiment: Minimal inhibition concentration; format: cell-based; details: Staphylococcus aureus, ATCC25904, 20 h, read-out: Antimicrobial activity (MIC in µg/ml) S. aureus
E. coli (ATCC BAA-1025) = experiment: Minimal inhibition concentration; format: cell-based; details: Escherichia coli, ATCCBAA1025, 20 h, read-out: Antimicrobial activity (MIC in µg/ml) E. coli
P. aeruginosa = experiment: Wound mouse model, bacterial load on the wound surface; format: in vivo, Female ICR mice; details: 10^7 CFU P. aeruginosa inoculated; 10 mg/kg applied to wound twice a day; n = 8
[1] = tested on: P. aeruginosa (ATCC 47085); experiment: Minimal inhibition concentration; format: cell-based; details: Pseudomonas aeruginosa, ATCC47085, 20 h, read-out: Antimicrobial activity (MIC in µg/ml) P. aeruginosa
[2] = tested on: K. pneumoniae (ATCC27736); experiment: Minimal inhibition concentration; format: cell-based; details: Klebsiella pneumoniae, ATCC27736, 20 h, read-out: Antimicrobial activity (MIC in µg/ml) K. pneumoniae
Organ = format: in vivo, ICR mice; details: mice, 10 mg/kg
[3] = Blood test, RBC parameters after intraperitoneal injection; format: in vivo, ICR mice; details: mice, 24 h after intraperitoneal injection

| Compound | MIC [2] | organ-specific toxicity, tissue section images (Organ) | Blood test results [3] | also measured |
| --- | --- | --- | --- | --- |
| O=C(O)c1cn(C2CC2)c2cc(N3CCNCC3)c(F)cc2c1=O [ciprofloxacin] |  |  |  | passages after which S. aureus began to develop resistance (S. aureus): 10 passages |
| C[C@H]1COc2c(N3CCN(C)CC3)c(F)cc3c(=O)c(C(=O)O)cn1c23 [Levofloxacin] | 0.06 µg/mL (≈ 0.166 µM) |  |  | MIC (S. aureus (ATCC 25904)): 0.09 µg/mL (≈ 0.249 µM); MIC (E. coli (ATCC BAA-1025)): 2.93 µg/mL (≈ 8.11 µM); bacteria on the infected wound after 24 h treatment (P. aeruginosa): 0 CFU; MIC [1]: 7.81 µg/mL (≈ 21.6 µM) |
| RQIKIWFQIRRWKWKK [T1-2] |  | did not observe organ-specific toxicity | no obvious changes |  |
| CN[C@H](CC(C)C)C(=O)N[C@H]1C(=O)N[C@@H](CC(N)=O)C(=O)N[C@H]2C(=O)N[C@H]3C(=O)N[C@H](C(=O)N[C@H](C(=O)O)c4cc(O)cc(O)c4-c4cc3ccc4O)[C@H](O)c3ccc(c(Cl)c3)Oc3cc2cc(c3O[C@@H]2O[C@H](CO)[C@@H](O)[C@H](O)[C@H]2O[C@H]2C[C@](C)(N)[C@H](O)[C@H](C)O2)Oc2ccc(cc2Cl)[C@H]1O [Vancomycin] | 1000 µg/mL (≈ 690 µM) |  |  |  |
| RQIKIWFQWRRWKWKK [T1-5] |  | did not observe organ-specific toxicity | no obvious changes |  |
| RQIRIWFQWKRWKWKR [T2-10] |  | did not observe organ-specific toxicity | no obvious changes |  |
